Laboratory results reported in PubChem BioAssay AID2060336 (Molecular Pharmacology Branch, DTP, NCI, 2025).
pIC50: −log10 of the molar value.

System: 958767-090-R-J1-PDC spheroid growth
Assay: Anticancer human tumor 958767-090-R-J1-PDC patient-derived head and neck squamous carcinoma cell line growth inhibition [IpAb]
Conditions: spheroids with HUVEC and MSC; for pIC50: curve of first compound; for viability, T/C: stronger effect = lower value
How it was run: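 Combinations with ipatasertib or abemaciclib were tested on tumour spheroids holding HUVEC (25%) and MSC (15%) alongside 60% malignant cells. Top concentration was at or near clinical Cmax (10 microM if undefined), descending in half-log steps.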
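Also: spheroids exposed to agents for 7 days.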
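For viability, T/C in this document: 100% = DMSO vehicle control wells.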

`CC(=O)c1c(C)c2cnc(Nc3ccc(N4CCNCC4)cn3)nc2n(C2CCCC2)c1=O` + CC(C)NCC(C(=O)N1CCN(c2ncnc3c2C(C)CC3O)CC1)c1ccc(Cl)cc1 was tested, and the pIC50 (second compound 0.1 µM) was < 6.52, the pIC50 (second compound 0.316 µM) was 6.52 and the pIC50 (second compound 1 µM) was > 9.02. The pIC50 (second compound 3.16 µM) was > 9.02, the pIC50 (second compound 10 µM) was > 9.02 and the viability, T/C (second compound 0.1 µM, first compound 0.000949 µM) was 83.8%. For the same compound, the viability, T/C (second compound 0.1 µM, first compound 0.003 µM) was 70.5%, the viability, T/C (second compound 0.1 µM, first compound 0.00949 µM) was 68.7% and the viability, T/C (second compound 0.1 µM, first compound 0.03 µM) was 67.7%. It also gave a viability, T/C (second compound 0.1 µM, first compound 0.0949 µM) of 53.4%, a viability, T/C (second compound 0.1 µM, first compound 0.3 µM) of 64.8% and a viability, T/C (second compound 0.316 µM, first compound 0.000949 µM) of 56.4%. It also gave a viability, T/C (second compound 0.316 µM, first compound 0.003 µM) of 65.3%, a viability, T/C (second compound 0.316 µM, first compound 0.00949 µM) of 54.2% and a viability, T/C (second compound 0.316 µM, first compound 0.03 µM) of 46.1%. For the same compound, the viability, T/C (second compound 0.316 µM, first compound 0.0949 µM) was 57.3%, the viability, T/C (second compound 0.316 µM, first compound 0.3 µM) was 52.5% and the viability, T/C (second compound 1 µM, first compound 0.000949 µM) was 48.1%. It also gave a viability, T/C (second compound 1 µM, first compound 0.003 µM) of 46.2%, a viability, T/C (second compound 1 µM, first compound 0.00949 µM) of 49.8% and a viability, T/C (second compound 1 µM, first compound 0.03 µM) of 41.8%. For the same compound, the viability, T/C (second compound 1 µM, first compound 0.0949 µM) was 47.2%, the viability, T/C (second compound 1 µM, first compound 0.3 µM) was 40.2% and the viability, T/C (second compound 3.16 µM, first compound 0.000949 µM) was 43.1%. The viability, T/C (second compound 3.16 µM, first compound 0.003 µM) was 43.6%, the viability, T/C (second compound 3.16 µM, first compound 0.00949 µM) was 39.1% and the viability, T/C (second compound 3.16 µM, first compound 0.03 µM) was 41.5%. It also gave a viability, T/C (second compound 3.16 µM, first compound 0.0949 µM) of 37.7%, a viability, T/C (second compound 3.16 µM, first compound 0.3 µM) of 31.2% and a viability, T/C (second compound 10 µM, first compound 0.000949 µM) of 41.4%. For the same compound, the viability, T/C (second compound 10 µM, first compound 0.003 µM) was 41.7%, the viability, T/C (second compound 10 µM, first compound 0.00949 µM) was 42.9% and the viability, T/C (second compound 10 µM, first compound 0.03 µM) was 35.5%. It also gave a viability, T/C (second compound 10 µM, first compound 0.0949 µM) of 30.7% and a viability, T/C (second compound 10 µM, first compound 0.3 µM) of 25%.
